Experimental data as given in paper PMC8218531 (Structure (London, England : 1993), 2021).
Read-outs that look alike come from different tables or passages of the source.

How the values were obtained:
M^pro = settings: covalent inhibitors, ref Dai et al., 2020, Ma et al., Qiao et al., 2021; cited from earlier work
SARS-CoV-2 M^pro [1] = target: T1, SARS-CoV-2 M^pro (Severe acute respiratory syndrome coronavirus 2, UniProt P0DTD1); test: Enzyme kinetics of M^pro with inhibitors; assay type: biochemical; settings: for in vitro activity against M^pro in words: compounds of this study with hydrophilic groups in S4
SARS-CoV-2 M^pro [2] = target: T1, SARS-CoV-2 M^pro; settings: cited from earlier work

Question: Which IC50 in words (M^pro) does the source give for `O=CC(CC1CCNC1=O)NC(=O)C(CC1CCCCC1)NC(=O)c1cc2ccccc2[nH]1` (centres unmarked) [Compound 11a] here?
Answer: Its IC50 in words is “Low-nanomolar”.

Question: For `O=CC(CC1CCNC1=O)NC(=O)C(Cc1cccc(F)c1)NC(=O)c1cc2ccccc2[nH]1` (centres unmarked) [Compound 11b], which IC50 in words (M^pro) is on record?
Answer: Its IC50 in words is “Low-nanomolar”.

Question: Which IC50 (SARS-CoV-2 M^pro [1]) does the source give for `CC(C)(O)CCOc1cc(Cl)cc(-c2cc(-c3c[nH]c(=O)[nH]c3=O)cn(-c3cccnc3)c2=O)c1` [Compound 29, 5-(3-(3-Chloro-5-(3-hydroxy-3-methylbutoxy)phenyl)-2-oxo-2H-[1,3'-bipyridin]-5-yl) pyrimidine-2,4(1H,3H)-dione] here?
Answer: Its IC50 is 0.25 to 0.5 µM.

Question: What about the “decrease in activity compared with 11” value (SARS-CoV-2 M^pro [1]; compared with compound 11) of the same molecule?
Answer: The value was “greater than 2 fold”.

Question: And the “in vitro activity against M^pro in words” value (SARS-CoV-2 M^pro [1])?
Answer: The value was “high-nanomolar range”.

Question: Which “in vitro activity against M^pro in words” value (SARS-CoV-2 M^pro [1]) does the source give for `O=C1CN(CCOc2cc(Cl)cc(-c3cc(-c4c[nH]c(=O)[nH]c4=O)cn(-c4cccnc4)c3=O)c2)CCN1` [Compound 50, 5-(3-(3-Chloro-5-(2-(3-oxopiperazin-1-yl)ethoxy)phenyl)-2-oxo-2H-[1,3'-bipyridin]-5-yl) pyrimidine-2,4(1H,3H)-dione] here?
Answer: The value was “high-nanomolar range”.

Question: With `CC(C)C[C@H](NC(=O)OCc1ccccc1)C(=O)N[C@@H](CC1CCNC1=O)C(O)S(=O)(=O)[O-].[Na+]` (some centres unmarked) [GC-376] as the molecule, how does the IC50 in words (M^pro) read?
Answer: Its IC50 in words is “Low-nanomolar”.

Question: With `N#Cc1ccccc1-c1cc(-c2ccccn2)cn(-c2ccccc2)c1=O` [Perampanel, perampanel] as the molecule, how does the IC50 (SARS-CoV-2 M^pro [2]) read?
Answer: Its IC50 is 100 to 250 µM.
